Key:
[1] = target: T1, microsomal triglyceride transfer protein (MTP) (Mesocricetus auratus, UniProt P55158); test: Inhibition of the activity of MTP (transfer of labelled triglyceride, SPA); type: biochemical, golden hamster; details: hamster liver MTP, [3H]-trioleine donor liposomes, biot-LDL acceptor, 18-24 hours at 37° C.; read-out: IC50, concentration which allows a 50% inhibition of MTP
T1 construct: The supernatant containing the soluble MTP is dialysed; from tissue; host or cells: golden hamster liver microsomes
T1 sequence (P55158 19-895): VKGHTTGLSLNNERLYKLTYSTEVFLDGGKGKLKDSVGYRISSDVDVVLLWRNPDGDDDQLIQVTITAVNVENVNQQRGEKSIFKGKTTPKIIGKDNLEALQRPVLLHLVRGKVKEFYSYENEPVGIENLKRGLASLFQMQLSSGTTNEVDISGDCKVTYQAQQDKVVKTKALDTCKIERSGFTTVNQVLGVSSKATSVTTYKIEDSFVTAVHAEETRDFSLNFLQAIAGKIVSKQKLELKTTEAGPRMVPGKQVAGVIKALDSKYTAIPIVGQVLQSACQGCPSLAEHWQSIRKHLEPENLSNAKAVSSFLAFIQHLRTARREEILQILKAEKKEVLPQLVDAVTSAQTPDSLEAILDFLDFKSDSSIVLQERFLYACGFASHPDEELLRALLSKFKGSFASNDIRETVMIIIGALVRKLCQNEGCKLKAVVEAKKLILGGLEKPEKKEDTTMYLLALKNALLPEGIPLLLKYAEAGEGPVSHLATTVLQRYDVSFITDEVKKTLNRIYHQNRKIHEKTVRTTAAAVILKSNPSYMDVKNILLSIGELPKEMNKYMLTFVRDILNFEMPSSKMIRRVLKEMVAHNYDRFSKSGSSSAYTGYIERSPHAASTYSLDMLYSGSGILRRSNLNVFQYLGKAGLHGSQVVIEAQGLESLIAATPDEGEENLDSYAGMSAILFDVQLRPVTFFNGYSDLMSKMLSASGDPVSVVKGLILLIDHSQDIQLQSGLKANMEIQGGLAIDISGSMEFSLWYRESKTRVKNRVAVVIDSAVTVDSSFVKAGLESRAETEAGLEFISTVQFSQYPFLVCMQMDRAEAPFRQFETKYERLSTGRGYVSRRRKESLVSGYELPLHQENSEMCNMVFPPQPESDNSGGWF
Procedure: Analysis of th inhibition of the activity of MTP The inhibition of the activity of microsomal triglyceride transfer protein MTP) was tested using the following protocal.
The inhibition of the activity of MTP with a compound may be quantified by observing the inhibition of the transfer of a labeled triglyceride, from a donor particle to an acceptor particle, in the presence of MTP. The procedure for preparing MTP is based on the method by Wetterau and Zilversmit (Biochem. Biophys. Acta (1986) 875 610). A few grams of golden hamster liver are taken and then rinsed several times in a 250 mM sucrose solution at 0° C. All the following steps proceed at +4° C. A 50% homogenate in 250 mM sucrose is prepared using a Teflon mill and then centrifuged for 10 minutes at 10 000×g at +4° C. The supernatant is then centrifuged at 105 000×g for 75 minutes at +4° C. The supematant is removed and the microsomal pellet is taken up in 3 ml (per gram of starting liver) of 150 mM pH 8.0 Tris/HCl. 1 ml aliquot fractions are stored at −80° C. until use.
After thawing a fraction of microsomes (1 ml), 12 ml of refrigerated 50 mM Tris/HCl, 50 mM KCl, 5 mM MgCl2, pH 7.4 buffers and 1.2 ml of deoxycholate (0.54% in water) are added. After incubating for 30 minutes at +4° C. with gentle agitation, the suspension is centrifuged at 105 000×g for 75 minutes. The supernatant containing the soluble MTP is dialysed against 150 mM Tris/HCl, 40 mM NaCl, 1 mM EDTA, 0.02% sodium azide, pH 7.4 buffer (5 times one litre over 2-3 days). […]
The acceptor particles are biotinylated low-density lipoproteins (biot-LDL). […] After incubating for 18-24 hours at 37° C. the reaction is quenched by adding 100 μl of Amersham SPA (Scintillation Proximity Assay) beads coupled to steptavidin and the radioactivity is counted using a Top Count (Packard) at least one hour later. The inhibition of the transfer of triglycerides by a compound is reflected by a reduction in the radioactivity transferred. The percentage of inhibition for a given compound is determined relative to controls which contain no compounds in the reaction mixture. […]

[2] = tested on: secretion of apo B in Hep G2 cells; test: Inhibition of the secretion of apo B in the Hep G2 human cell line (ELISA); type: cell-based; details: HepG2, 24 hours incubation, sandwich ELISA for human apo B, read-out: IC50, concentration which produces a 50% inhibition of the secretion of apo B in the Hep G2 cells
Procedure: Analysis of the secretion of apo B in the Hep G2 human cell line:
The activity of a compound according to the invention may be evaluated by measuring the inhibition of the secretion of apo B in Hep G2 cells.
The Hep G2 cells (ECACC—number 85011430) are used as a model in the study of the in vitro hepatic secretion of lipoproteins (Dixon J. and Ginsberg H.—J. Lipid. Res.—1993, 34:167-179).
The Hep G2 cells are cultured in a Dulbecco's modified Eagle medium containing 10% foetal calf serum (DMEM and FCS—Gibco) in 96-well plates in an atmosphere of 5% carbon dioxide for 24 hours (about 70% confluence).
The test compounds are dissolved at 2 or 10 mM in dimethyl sulphoxide (DMSO). Serial dilutions (1:3.16) are performed in DMSO and added (1:200—Robot Multim Beckman) to the growth medium (200 microlitres) and finally incubated for 24 hours in the various wells containing the Hep G2 cells.
The 24-hour culture supernatant diluted to 1:5 (phosphate-buffered saline: PBS containing 1% bovine serum albumin) is tested according to a sandwich ELISA method which is specific for human apo B.
The results are expressed in terms of IC50, namely the concentration which produces a 50% inhibition of the secretion of apo B in the Hep G2 cells.

## Cc1cccc(CN2CCC(NC(=O)c3ccccc3-c3ccc(C(F)(F)F)cc3)CC2)n1 [A-5, 1-[(6-methyl-2-pyridyl)methyl]-4-[(4′-trifluoromethyl-2-biphenyl)carbonylamino]-piperidine]
[1]
  IC50: 65 nM
[2]
  IC50: 3 nM
other
  melting point: 170 °C

## Cc1ncccc1CN1CCC(NC(=O)c2ccccc2-c2ccc(C(F)(F)F)cc2)CC1 [A-7, 1-[(2-methyl-3-pyridyl)methyl]-4-[(4′-trifluoromethyl-2-biphenyl)carbonylamino]-piperidine]
[1]
  IC50: 84 nM
[2]
  IC50: 74 nM

## O=C(NC1CCN(Cc2ccc3ccccc3n2)CC1)c1ccccc1-c1ccc(C(F)(F)F)cc1 [A-8, 1-(2-quinolylmethyl)-4-[(4′-trifluoromethyl-2-biphenyl)carbonylamino]-piperidine]
[1]
  IC50: 26 nM
[2]
  IC50: 2 nM
other
  melting point: 210 °C

Reference: patent US20040034028A1, “4-(biphenylcarbonylamino)piperidine derivatives as mtp inhibitors” (priority 2000, published 2004)
